Data taken from US4965280A, “Antifungal carbinols” (E. I. Du Pont de Nemours and Company, priority 1989, dated 1990).
Values after ≈ are worked out from the molar mass of the structure shown. Like-named read-outs stand apart in the source and are kept apart here.

How the values were obtained:
RICE INDICA EFF = test: Test C rice paddy; format: in vivo; conditions: Oryza sativa, 504 h, 21 days, read-out: plant response; for pest or weed control at 64 g/ha: 0064 G/HA; for pest or weed control at 125 g/ha: 0125 G/HA; for pest or weed control at 250 g/ha: 0250 G/HA; for pest or weed control at 500 g/ha: 0500 G/HA
Excerpt: (§1) Sixteen cm diameter Airlite plastic pots were partially filled with Tama slit loam soil and the soil saturated with water. Japonica and Indica rice seedlings a the 2.0 to 2.5 leaf stage were transplanted into 1/3 of the pots. Into another third of the pots were transplanted seedling or sprouted tubers of water plantain (Alisma trivale), Scripus (Scirpus paludosus), Cyperus (Cyperus esculentus), and arrowhead (Sagittaria spp.). The remaining pots were planted with barnyardgrass (Echinochloa crusgalli) seeds and sprouted tubes of water chestnut (Eleocharis spp.). These weeds all represent major rice weeds or genera of weeds important in rice. Three to four days after planting, the water level was raised to 3 cm (about 1200 ml/pot) and maintained a this level throughout the test. Chemical treatments were applied directly to the paddy water, within 24 hours of raising the water, after being formulated in a nonphytotoxic solvent. The pots were maintained in the greenhouse.

YELLOW NUTSEDGE = test: Test C rice paddy; format: in vivo, Cyperus esculentus; conditions: 21 days
Excerpt: as §1

SCIRPUS = test: Test C rice paddy; format: in vivo, Scirpus paludosus; conditions: Bolboschoenus maritimus, 504 h, 21 days, read-out: plant response; for pest or weed control at 64 g/ha: 0064 G/HA; for pest or weed control at 125 g/ha: 0125 G/HA; for pest or weed control at 250 g/ha: 0250 G/HA; for pest or weed control at 500 g/ha: 0500 G/HA
Excerpt: as §1

Botrytis cinerea = test: Example C bean grey mold; format: in vivo; conditions: Botrytis cinerea, 24 h, read-out: disease control rating, Ex. C
Summary of the method: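 Test compounds were taken up in acetone (6% of final volume) and suspended at 100 or 20 ppm in purified water containing 250 ppm TREM 014 surfactant (polyhydric alcohol esters). Broad bean seedlings were sprayed with this suspension until run-off.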

[1] = test system: Candida albicans ATCC 11651; test: In vivo systemic Candida infection in mice, primary assay; parameters: species or system Candida albicans; CF-1 female mice; conditions: Candida albicans, 150 mg/kg per day, read-out: % Survival
Summary of the method: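 CF-1 female mice (20 g, 10 per group) were infected IV with 0.2 ml of 1×10^7/ml C. albicans ATCC 11651, then given test compound subcutaneously at 50 or 150 mg/kg/day at 1 and 6 h post-infection and once daily for three more days. Survival was followed for 21 days against infected untreated mice; ≥70% protection at 14 days was scored active.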

Sclerotium rolfsii = test: Example M southern blight; format: in vivo; conditions: Agroathelia rolfsii, 336 h; 5 kg/ha; read-out: disease control rating, Ex. M
Description: […] Seeds and soil were then inoculated with a mixture of sand, cereal and mycelium of the fungus Sclerotium rolfsii, causal agent of sourthern blight, and incubated in a growth chamber at 30° C. for 14 days. Disease ratings were then made.

PERLITE CORN = test: Test D, soil covered with perlite; format: in vivo, Zea mays
Description: The Corn and Sorghum Herbicide Test included the following species in both the preemergence and postemergence evaluations:
Postemergence plantings were grown in Sassafras sandy loam soil. Corn and soybeans were grown in separate 25 cm diameter containers. Sorghum and the seven grass weed species were grown in two 18 cm diameter containers, 4 species per container. The seven broadleaf weed species were also grown in two 18 cm diameter containers, 4 species in one container, 3 species in the second container. One additional planting of corn in an 18 cm diameter container was made. The soil surface of this additional container of corn was covered with the absorbent, perlite, before spray treatment so that test chemicals would enter the plant only via the foliage. The plants were grown 10-21 days, dependent upon the species and then sprayed postemergence with the test chemicals dissolved in a nonpytotoxic solvent.
Treated plants and controls were maintained in the greenhouse for 2 to 4 weeks. Visual planting response ratings were made on a percentage scale of 0 to 100 in comparison with a control where 0=no injury, and 100=death.

WATERCHESTNUT = test: Test C rice paddy; format: in vivo, Eleocharis spp.; conditions: Eleocharis, 504 h, 21 days, read-out: plant response; for pest or weed control at 64 g/ha: 0064 G/HA; for pest or weed control at 125 g/ha: 0125 G/HA; for pest or weed control at 250 g/ha: 0250 G/HA; for pest or weed control at 500 g/ha: 0500 G/HA
Excerpt: as §1

RICE JAP EFF = test: Test C rice paddy; format: in vivo, Japonica rice; conditions: Oryza sativa, 504 h, 21 days, read-out: plant response; for pest or weed control at 64 g/ha: 0064 G/HA; for pest or weed control at 125 g/ha: 0125 G/HA; for pest or weed control at 250 g/ha: 0250 G/HA; for pest or weed control at 500 g/ha: 0500 G/HA
Excerpt: as §1

[2] = test system: Candida albicans ATCC 11651; test: In vitro antifungal MIC, microtiter broth dilution; conditions: Candida albicans, ATCC11651, 24 h, read-out: MIC values, C. albicans, 30°, 24 hours

Row | Compound | pest or weed control at 64 g/ha (RICE INDICA EFF) | pest or weed control at 125 g/ha (RICE INDICA EFF) | pest or weed control at 250 g/ha (RICE INDICA EFF) | pest or weed control at 500 g/ha (RICE INDICA EFF) | pest or weed control at 1000 g/ha (RICE INDICA EFF) | plant response (YELLOW NUTSEDGE; 0064 G/HA) | plant response (YELLOW NUTSEDGE; 0125 G/HA) | plant response (YELLOW NUTSEDGE; 0250 G/HA) | plant response (YELLOW NUTSEDGE; 0500 G/HA) | plant response (YELLOW NUTSEDGE; 1000 G/HA) | pest or weed control at 64 g/ha (SCIRPUS) | pest or weed control at 125 g/ha (SCIRPUS) | pest or weed control at 250 g/ha (SCIRPUS) | pest or weed control at 500 g/ha (SCIRPUS) | pest or weed control at 1000 g/ha (SCIRPUS) | pest or weed control at 100 ppm (Botrytis cinerea) | responders at 150 mg/kg ([1]; ATCC11651, 168 h, day 7) | responders at 150 mg/kg ([1]; ATCC11651, 336 h, day 14) | responders at 150 mg/kg ([1]; ATCC11651, 504 h, day 21) | plant response (PERLITE CORN; POSTEMERGENCE 0250 GM/HA) | other results
1 | C=C(c1ccccc1Cl)C(O)(Cn1cncn1)c1ccc(Cl)cc1Cl (stereo not shown) [Example 33, 2-(2,4-Dichlorophenyl)-3-(2-chlorophenyl)-1-(1H-1,2,4-triazol-1-yl)-3-buten-2-ol] | 0% | 0% | 0% | 30% | 70% | 0 | 0 | 0 | 0 | 40 | 0% | 0% | 0% | 0% | 0% | 56% | 100% | 100% | 100% | 0% | pest or weed control at 20 ppm (Botrytis cinerea; 20 PPM): 37%; pest or weed control at 5000 g/ha (Sclerotium rolfsii): 0%; plant response (PERLITE CORN; POSTEMERGENCE 0500 GM/HA): 0%; plant response (PERLITE CORN; POSTEMERGENCE 1000 GM/HA): 0%; pest or weed control at 64 g/ha (WATERCHESTNUT): 0%; pest or weed control at 125 g/ha (WATERCHESTNUT): 0%; pest or weed control at 250 g/ha (WATERCHESTNUT): 0%; pest or weed control at 500 g/ha (WATERCHESTNUT): 0%; pest or weed control at 1000 g/ha (WATERCHESTNUT): 0%; pest or weed control at 64 g/ha (RICE JAP EFF): 0%; pest or weed control at 125 g/ha (RICE JAP EFF): 0%; pest or weed control at 250 g/ha (RICE JAP EFF): 0%; pest or weed control at 500 g/ha (RICE JAP EFF): 30%; pest or weed control at 1000 g/ha (RICE JAP EFF): 60%; MIC [2]: 0.03 µg/mL (≈ 0.076 µM)
2 | C=C(c1ccccc1Cl)C(O)(Cn1cncn1)c1ccc(F)cc1F (stereo not shown) [Example 35] | 0% | 0% | 0% | 0% | 20% | 0 | 0 | 60 | 95 | 100 | 0% | 0% | 0% | 0% | 50% | 96% | 100% | 100% | 90% | 0% | pest or weed control at 5000 g/ha (Sclerotium rolfsii): 0%; plant response (PERLITE CORN; POSTEMERGENCE 0500 GM/HA): 0%; pest or weed control at 64 g/ha (WATERCHESTNUT): 60%; pest or weed control at 125 g/ha (WATERCHESTNUT): 40%; pest or weed control at 250 g/ha (WATERCHESTNUT): 60%; pest or weed control at 500 g/ha (WATERCHESTNUT): 0%; pest or weed control at 1000 g/ha (WATERCHESTNUT): 0%; pest or weed control at 64 g/ha (RICE JAP EFF): 0%; pest or weed control at 125 g/ha (RICE JAP EFF): 0%; pest or weed control at 250 g/ha (RICE JAP EFF): 0%; pest or weed control at 500 g/ha (RICE JAP EFF): 0%; pest or weed control at 1000 g/ha (RICE JAP EFF): 20%; MIC [2]: 0.03 µg/mL (≈ 0.0829 µM)
3 | C=C(c1ccccc1)C(O)(Cn1cncn1)c1ccc(Cl)cc1Cl (stereo not shown) [Example 50, 2-(2,4-Dichlorophenyl)-3-phenyl-1-(1H-1,2,4-triazol-1-yl)-3-buten-2-ol] | 0% | 40% | 30% | 70% | 80% | 0 | 0 | 0 | 30 | 50 | 0% | 0% | 0% | 0% | 0% | 98% | 100% | 90% | 50% | 0% | plant response (PERLITE CORN; POSTEMERGENCE 0500 GM/HA): 0%; pest or weed control at 64 g/ha (WATERCHESTNUT): 0%; pest or weed control at 125 g/ha (WATERCHESTNUT): 0%; pest or weed control at 250 g/ha (WATERCHESTNUT): 0%; pest or weed control at 500 g/ha (WATERCHESTNUT): 0%; pest or weed control at 1000 g/ha (WATERCHESTNUT): 0%; pest or weed control at 64 g/ha (RICE JAP EFF): 0%; pest or weed control at 125 g/ha (RICE JAP EFF): 0%; pest or weed control at 250 g/ha (RICE JAP EFF): 30%; pest or weed control at 500 g/ha (RICE JAP EFF): 60%; pest or weed control at 1000 g/ha (RICE JAP EFF): 70%; MIC [2]: 0.1 µg/mL (≈ 0.278 µM)
